Experimental data from patent US8569482B2, “Nanoparticulate probe for in vivo monitoring of tissue oxygenation” (priority 2003, dated 2013).
Several values for one entry are separate records, joined by “and”; a condition that tells them apart may be missing. Equal values may be shown once. Entries after “also recorded” stand apart in the source; their conditions may differ.

Key:
[1] = system: mouse aortic endothelial cells (MAECs); format: cell-based
[2] = system: K56 (an erythroleukemic cell line) and A 431 (an epidermal carcinoma cell line); details: 200 μM; cited from earlier work
[3] = system: bovine lung microvascular endothelial cells (BLMVECs)
Description: Bovine Lung Microvasular Endothelial Cells (BLMVECs) Culture The BLMVECs used in this study were obtained from the VEC Technologies, Inc, New York. BLMVECs cultured in MEM were maintained in 75 mm flasks at 37° C. in a humidified atmosphere of 5% CO2/95% air and grown to contact-inhibited monolayers with a typical cobblestone morphology [157]. Cells from each primary flask were detached with 0.05% trypsin, resuspended in fresh medium, and cultured in complete medium to 70% confluency for other studies. Cells from passages 10-14 were used in all the experiments.
Preparation of Particulates for Cell Culture Studies Microcrystalline particulates of LiNc-BuO were suspended in complete MEM medium (10 mg/0.5 ml) and sonicated for 30 sec pulse for ten times on ice with a probe sonicator at a setting of 5. The particulate suspension was cooled for 1 min between two successive 30 sec bursts of sonication. At the end of sonication, the suspension was placed on ice for exactly 2 min to allow the heavier particulates to settle down at the bottom of the tube and the supernatant liquid was transferred to a separate tube for intracellular delivery. The solution contained fine particulates of LiNc-BuO with a particulate size <2 μm. All the preparations were carried out under sterile conditions.
Internalization of Particulates into Endothelial Cells BLMVECs, at 70% confluence (10^4 cells/35 mm dish), in 1 ml complete MEM were treated with 50 μl of LiNc-BuO particulate suspension that contained particulates of <2 μm prepared by procedure as described under Materials and Methods. The cells were maintained at 37° C. under 95% air/5% CO2 environment. At 6 h intervals, for 72 h, cells were examined under light microscope for internalization of LiNc-BuO particulates. […] The cell pellet was resuspended in MEM containing glucose (0.5 g per 500 ml), at a density of 2×10^5 cells/ml and used for EPR analysis. Cells after LiNc-BuO internalization and repeated washings were photographed under an inverted microscope while still adherent to the substratum of the 35 mm dish. Cell viability was assessed by light microscopy and Alamar Blue assay according to the manufacturer's recommendations. Cell separation by trypsinization was avoided to keep the cell morphology and function in tact.
A 20 μL volume of the cell suspension containing 4,000 cells and 10 μM TAM was drawn into a gas-permeable Teflon tube and subjected to EPR spectroscopy as described below. The measurements were also carried out with Menadione (50 μM) and KCN (100 μM).
EPR Measurements The EPR measurements were carried out using a Bruker X-band (9.8 GHz) spectrometer (Bruker Instruments, Karlshrue, Germany) equipped with TM110 cavity. EPR spectral acquisitions were performed using custom-developed data acquisition software (SPEX) that was capable of fully automated data acquisition and processing. Unless otherwise mentioned, the EPR line-widths reported are peak-to-peak widths (.Bpp) of the first derivative spectra.
Simultaneous Measurements of LiNc-BuO and TAM Line-Shapes LiNc-BuO and TAM were used as site specific oximetry probes to measure intra- and extracellular oxygen concentration, respectively. Both LiNc-BuO and TAM give a single-line EPR spectrum, whose amplitude (intensity) and width depend on the amount/concentration of the probe and oxygen, respectively.

[4] = Reduction of particle size using high frequency ultrasound; format: physicochemical; details: after 20 kHz then 269-1062.4 kHz sonication in water
Description: LiNc-BuO particles were crushed to a fine powder using a spatula. LiNc-BuO (20 mg) was suspended in […] of water without any additives (a total of 5 samples were made). The samples were then sonicated at 20 kHz frequency. 20 kHz sonolysis was conducted at a power setting of “2” for a total time of 5 minutes. All 5 samples were sonicated in this way. The samples were then allowed to sit overnight. The following day, the supernatant was extracted from all samples and placed in a measuring cylinder to make a 5 ml sample of suspended, small particles in aqueous solution. 1 ml of this stock was used to determine the particle size. The remaining 4 ml stock LiNc-BuO suspension was sonicated at various frequencies in the following way: 1 ml stock was placed in a test tube and suspended in the ultrasound bath which was operated at either 269, 354, 803 or 1062.4 kHz and a power of 60 W for a total time of 10 minutes. The 1 ml sample was then diluted to 2 ml using Milli-Q filtered water and the particle size determined. […] The procedure yielded particulates with mean size, 240 nm, with a min size, 72 nm.

[5] = Effect of biological oxidoreductants, pH and radiation on EPR stability and oxygen response; format: physicochemical
Source text: Effect of Biological Oxidoreductants, pH, Temperature, and Radiation Since our goal was to use the newly synthesized particulate material for biological applications, we thoroughly investigated the EPR stability (paramagnetism) as well as sensitivity of the EPR line-width to molecular oxygen in presence of a variety of biological oxidants, reductants, pH and radiation. […] We also observed that pH of the medium in the range 2-10 had no effect on their EPR sensitivity to oxygen. We also treated the particulates with 15.5 Gy of Cobalt-60 γ-ray irradiation for 10 min and found no effect on the EPR properties of the particulates.

[6] = system: gastrocnemius muscle tissue of C3H mice; test: Long-term stability and oxygen response of particulates implanted in gastrocnemius muscle; format: in vivo; details: versus original unimplanted particulate, through 180 day study
Description: Animal Studies Female C3H mice were used in the present work. The mice were supplied through the Frederick Cancer Research Center Animal Production, Frederick, Md. The animals were received at 6 weeks of age and housed five per cage in climate-controlled rooms and allowed food and acidified water ad lib. The animals were on average 50 days old at the time of experimentation and weighed 25±3 g. Experiments were conducted according to the principles outlined in the Guide for the Care and Use of Laboratory Animals prepared by the Institute of Laboratory Animal Resources, National Research Council.
Implantation of LiNc-BuO in Tumor and Gastrocnemius Muscle of Mice Mice were anesthetized with breathing of isoflurane (1.5%)—air mixture delivered through a nose cone. […]
Stability in Tissues In order to evaluate the long-term stability of these particulates in tissues, we implanted the particulates in the gastrocnemius muscle tissue of mice and performed repeated measurements of pO2 in the same animals over a period of time. […] The EPR spectrum of the particulate in the leg was recorded periodically up to 180 days following the implantation of particulate (FIG. 4). […] Mice were periodically sacrificed through the 180 day study period and tissue pO2 values were assessed to verify the registration of anoxic pO2 in the dead tissue. […]

[7] = system: Human arterial smooth muscle cells (HASMCs)
Description: Cultute of Smooth Muscle Cells Human arterial smooth muscle cells (HASMCs) were obtained from Clonetics, San Diego, Calif. at passage 4. Cells were cultured and passed in Ham's medium containing 225 ml of DMEM, 225 ml of F-12 medium, 50 ml of FBS (10%), 5 ml of glutamate and 5 ml of antibiotics in a final volume of 500 ml. Cell cultures were maintained at 37° C. under 95% air/5% CO2 environment in 35 mm dishes. HASMCs up to passage 11 were used in the current study.
Preparation of Particulates for Cell Culture Studies Fine crystals of freshly synthesized LiNc-BuO were suspended in Ham's medium (10 mg/0.5 ml) and sonicated ten times for 30 sec on ice with a probe sonicator at a setting of 5. The particulate mixture was cooled on ice for 1 min between two successive 30 sec burst of sonication. […] The size of the particulates for intracellular delivery was <2 μm as determined by optical microscopy.
Internalization of Particulates into Smooth Muscle Cells HMSMCs, at 70% confluence (10^4 cells/dish), in 1 ml Ham's medium were treated with 50 μl of LiNc-BuO particulate suspension that contained particulates of <2 μm prepared by the procedure as mentioned before. […] Cell viability was assessed by light microscopy and Alamar Blue assay according to the manufacturer's recommendations.

[8] = switching gas between nitrogen and room air
[9] = particulates <2 μm, within 18 h

For c1ccc2c(c1)[I+]c1ccccc1-2 [DPI, diphenyleneiodonium chloride], which “effect on oxygen consumption rate (OCR)” value [1] is on record?
Its value is “complete inhibition of oxygen consumption; also recorded: complete inhibition of the OCR; also recorded: completely blocked”.

For C=C(C)[C@H]1Cc2c(ccc3c2O[C@@H]2COc4cc(OC)c(OC)cc4[C@@H]2C3=O)O1 [rotenone], which “effect on oxygen consumption rate (OCR)” value [1] is on record?
The value was “complete inhibition of oxygen consumption; also recorded: complete inhibition of the OCR; also recorded: completely inhibited the consumption of oxygen”.

With CC1=CC(=O)c2ccccc2C1=O [menadione] as the molecule, how does the “increase of intra- and extracellular pO2” value [2] read?
Its value is 10-15%.

What about the “effect on intra- and extracellular pO2 and oxygen gradient” value ([3]; menadione 50 μM, cyanide 100 μM, listed as Menadione) of the same molecule?
The value was “did not affect significantly”.

And the “effect on oxygen consumption rate (OCR)” value [1]?
Its value is “increased rates of oxygen consumption; also recorded: increased the OCRs”.

What about the “increase in OCR” value ([1]; 50 μM) of the same molecule?
The value was “two-fold increase”.

What about the “effect on OCR at lower concentrations” value ([1]; 10 and 50 μM, measured immediately) of the same molecule?
The value was “significant increase in the OCR”.

And the “effect on OCR at higher concentrations” value ([1]; 100 and 200 μM, measured immediately)?
Its value is “decrease in the OCR; also recorded: significantly less compared to the control values”.

For “Lithium 5,9,14,18,23,27,32,36-octa-n-butoxy-2,3-naphthalocyanine [LiNc-BuO]”, which mean particle size [4] is on record?
The mean particle size was 240 nm.

And the min particle size [4]?
Its min particle size is 72 nm.

What about the “effect of gamma irradiation on EPR properties” value ([5]; 15.5 Gy Cobalt-60, 10 min) of the same molecule?
The value was “no effect”.

And the “effect of pH on EPR sensitivity to oxygen” value ([5]; pH 2-10)?
The value was “no effect”.

And the “effect of oxidants and reductants on EPR spectrum or oxygen response” value ([5]; superoxide, hydroxyl, H2O2, singlet oxygen, alkylperoxyl, nitric oxide, GSH, ascorbate, 30 min)?
Its value is “did not show any effect”.

And the “spin density relative to LiPc” value?
Its value is “seven-fold higher”.

And the “anoxic peak-to-peak EPR line-width” value (0% oxygen, X-band, room temperature)?
The value was 210 mg.

And the “peak-to-peak EPR line-width in room air” value (20.9% oxygen (159 mmHg))?
The value was 1550 mg.

What about the “peak-to-peak EPR line-width in 100% oxygen” value (100% oxygen, 760 mmHg) of the same molecule?
The value was 6675 mg.

What about the microwave power saturation (X-band) of the same molecule?
The microwave power saturation was “not saturable for up to 25 mW; also recorded: nonsatuarable up to 25 mW”.

And the “oxygen sensitivity (slope of line-width versus pO2)” value (linear in pO2 range measured (0-160 or 0-760 mmHg))?
Its value is 8.5 mG/mmHg.

And the pO2 resolution (physiological range)?
Its pO2 resolution is ~0.2 mmHg and ~0.1 mmHg.

And the “peak-to-peak EPR line-width at 10% oxygen” value (suspended in PBS, 10% oxygen (pO2 76 mmHg))?
Its value is 852 mg.

And the “response time, deoxygenation” value [8]?
The value was ~20 s.

And the “response time, oxygenation” value [8]?
Its value is ~1 s.

What about the “effect of aqueous dispersion media on line-width and lineshape” value (water, PBS, cell culture media) of the same molecule?
The value was “not affected”.

And the “cytotoxicity (light microscopy, Alamar Blue)” value [3]?
Its value is “no cytotoxicity”.

What about the “viability of cells that internalized probe (Trypan blue exclusion)” value [3] of the same molecule?
The value was > 95%.

What about the “mean spin density of particulates internalized in a single cell” value ([3]; in comparison with TAM standard) of the same molecule?
The value was 6×10^11 spins/cell.

And the “cells that internalized the particulates” value [3, 9]?
Its value is ~95%.

And the “oxygen sensitivity of particulates recovered from dead tissue” value [6]?
The value was “not changed”.

And the “cytotoxicity (light microscopy, Alamar Blue)” value [7]?
Its value is “no apparent cytotoxicity”.

And the “internalization of particulates in cells” value [7, 9]?
The value was “almost all the cells in the 35 mm dish internalized the particulates”.
